This is an account of results in patent publication US11345712B2, “Protein-targeting compounds and pharmaceutical compositions thereof, and their therapeutic applications” (BioTheryX, Inc., priority 2019, dated 2022).

Each structure is given as a SMILES string.

The subject of this experiment is MOLM-13 cells. As to the kind of experiment: MOLM-13 cell viability assay (CellTiter-Glo). The format is cell-based. The following applies: Homo sapiens, MOLM-13, 72 h, 3 days, concentration of 1 μM, read-out: Antiproliferative Activity (inhibition, MOLM-13 cell viability). A digest of the protocol: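 MOLM-13 AML cells in RPMI 1640 with 10% FBS, seeded at 2,500 cells/well and exposed to compound or DMSO for 3 days at 37° C, 5% CO2. Viability read as CellTiter-Glo luminescence after 10 min shaking.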
(In general: Cellular ATP, detected with luciferase, serves as a proxy for viable cell number.)

`CN(C)c1cccc(NC(=O)NCc2cc3c(s2)C(=O)N(C2CCC(=O)NC2=O)C3)c1` (stereo not drawn) [II-48, 1-(3-(dimethylamino)phenyl)-3-((5-(2,6-dioxopiperidin-3-yl)-6-oxo-5,6-dihydro-4H-thieno[2,3-c]pyrrol-2-yl)methyl)urea]: the cytotoxicity at 1 µM is above 80%.

For `Cc1cc(NC(=O)NCc2cc3c(s2)C(=O)N(C2CCC(=O)NC2=O)C3)cc(N(C)C)c1` (stereo not drawn) [II-49, 1-(3-(dimethylamino)-5-methylphenyl)-3-((5-(2,6-dioxopiperidin-3-yl)-6-oxo-5,6-dihydro-4H-thieno[2,3-c]pyrrol-2-yl)methyl)urea], the cytotoxicity at 1 µM is above 80%.

Take `CN(C)c1cc(NC(=O)NCc2cc3c(s2)C(=O)N(C2CCC(=O)NC2=O)C3)cc(C(F)(F)F)c1` (stereo not drawn) [II-50, 1-(3-(dimethylamino)-5-(trifluoromethyl)phenyl)-3-((5-(2,6-dioxopiperidin-3-yl)-6-oxo-5,6-dihydro-4H-thieno[2,3-c]pyrrol-2-yl)methyl)urea]: the cytotoxicity at 1 µM is above 80%.

For `Cc1ccc(NC(=O)NCc2cc3c(s2)C(=O)N(C2CCC(=O)NC2=O)C3)cc1CN(C)C` (stereo not drawn) [II-51, 1-(3-((dimethylamino)methyl)-4-methylphenyl)-3-((5-(2,6-dioxopiperidin-3-yl)-6-oxo-5,6-dihydro-4H-thieno[2,3-c]pyrrol-2-yl)methyl)urea], the cytotoxicity at 1 µM is below 25%.

As to `CCN(CC)c1ccc(NC(=O)NCc2cc3c(s2)C(=O)N(C2CCC(=O)NC2=O)C3)cc1C` (stereo not drawn) [II-52, 1-(4-(diethylamino)-3-methylphenyl)-3-((5-(2,6-dioxopiperidin-3-yl)-6-oxo-5,6-dihydro-4H-thieno[2,3-c]pyrrol-2-yl)methyl)urea], the cytotoxicity at 1 µM is below 25%. For the compound `CN(C)Cc1cccc(NC(=O)NCc2cc3c(s2)C(=O)N(C2CCC(=O)NC2=O)C3)c1` (stereo not drawn) [II-53, 1-(3-((dimethylamino)methyl)phenyl)-3-((5-(2,6-dioxopiperidin-3-yl)-6-oxo-5,6-dihydro-4H-thieno[2,3-c]pyrrol-2-yl)methyl)urea], the cytotoxicity at 1 µM is below 25%. In the case of `Cc1ccc(NC(=O)NCc2cc3c(s2)C(=O)N(C2CCC(=O)NC2=O)C3)cc1C(C)C` (stereo not drawn) [II-54, 1-((5-(2,6-dioxopiperidin-3-yl)-6-oxo-5,6-dihydro-4H-thieno[2,3-c]pyrrol-2-yl)methyl)-3-(3-isopropyl-4-methylphenyl)urea] it was above 80%; in that of `CN(C)c1cc(NC(=O)NCc2cc3c(s2)C(=O)N(C2CCC(=O)NC2=O)C3)ccc1C(F)(F)F` (stereo not drawn) [II-55, 1-(3-(dimethylamino)-4-(trifluoromethyl)phenyl)-3-((5-(2,6-dioxopiperidin-3-yl)-6-oxo-5,6-dihydro-4H-thieno[2,3-c]pyrrol-2-yl)methyl)urea], above 80%. As to `CC(C)N(C)c1cccc(NC(=O)NCc2cc3c(s2)C(=O)N(C2CCC(=O)NC2=O)C3)c1` (stereo not drawn) [II-56, 1-((5-(2,6-dioxopiperidin-3-yl)-6-oxo-5,6-dihydro-4H-thieno[2,3-c]pyrrol-2-yl)methyl)-3-(3-(isopropyl(methyl)amino)phenyl)urea], the cytotoxicity at 1 µM is above 80%. Regarding `Cc1ccc(CC(=O)NCc2csc3c2CN(C2CCC(=O)NC2=O)C3=O)cc1Cl` (stereo not drawn) [II-57, 2-(3-chloro-4-methylphenyl)-N-((5-(2,6-dioxopiperidin-3-yl)-6-oxo-5,6-dihydro-4H-thieno[2,3-c]pyrrol-3-yl)methyl)acetamide], the cytotoxicity at 1 µM was 50 to 80%.

On to `COc1cc(NC(=O)NCc2cc3c(s2)C(=O)N(C2CCC(=O)NC2=O)C3)ccc1C` (stereo not drawn) [II-58, 1-((5-(2,6-dioxopiperidin-3-yl)-6-oxo-5,6-dihydro-4H-thieno[2,3-c]pyrrol-2-yl)methyl)-3-(3-methoxy-4-methylphenyl)urea], for which the cytotoxicity at 1 µM is above 80%. For the compound `Cc1cc(NC(=O)NCc2cc3c(s2)C(=O)N(C2CCC(=O)NC2=O)C3)ccc1N(C)C` (stereo not drawn) [II-59, 1-(4-(dimethylamino)-3-methylphenyl)-3-((5-(2,6-dioxopiperidin-3-yl)-6-oxo-5,6-dihydro-4H-thieno[2,3-c]pyrrol-2-yl)methyl)urea], the cytotoxicity at 1 µM is below 25%. Regarding `CC(C)c1cc(NC(=O)NCc2cc3c(s2)C(=O)N(C2CCC(=O)NC2=O)C3)cc(N(C)C)c1` (stereo not drawn) [II-60, 1-(3-(dimethylamino)-5-isopropylphenyl)-3-((5-(2,6-dioxopiperidin-3-yl)-6-oxo-5,6-dihydro-4H-thieno[2,3-c]pyrrol-2-yl)methyl)urea], the cytotoxicity at 1 µM is above 80%. On to `CN(C)c1ccc(CC(=O)NCc2scc3c2CN(C2CCC(=O)NC2=O)C3=O)cc1` (stereo not drawn) [II-61, 2-(4-(dimethylamino)phenyl)-N-((5-(2,6-dioxopiperidin-3-yl)-4-oxo-5,6-dihydro-4H-thieno[3,4-c]pyrrol-1-yl)methyl)acetamide], for which the cytotoxicity at 1 µM was below 25%. With `CC(C)(C)c1ccc(CC(=O)NCc2scc3c2CN(C2CCC(=O)NC2=O)C3=O)cc1` (stereo not drawn) [II-62, 2-(4-(tert-butyl)phenyl)-N-((5-(2,6-dioxopiperidin-3-yl)-4-oxo-5,6-dihydro-4H-thieno[3,4-c]pyrrol-1-yl)methyl)acetamide] the figure was 25 to 50%; with `COc1ccc(CC(=O)NCc2scc3c2CN(C2CCC(=O)NC2=O)C3=O)cc1C(C)C` (stereo not drawn) [II-63, N-((5-(2,6-dioxopiperidin-3-yl)-4-oxo-5,6-dihydro-4H-thieno[3,4-c]pyrrol-1-yl)methyl)-2-(3-isopropyl-4-methoxyphenyl)acetamide], above 80%; with `Cc1ccc(NCCCCCNCc2scc3c2CN(C2CCC(=O)NC2=O)C3=O)cc1Cl` (stereo not drawn) [II-64, 3-(1-(((5-((3-chloro-4-methylphenyl)amino)pentyl)amino)methyl)-4-oxo-4H-thieno[3,4-c]pyrrol-5(6H)-yl)piperidine-2,6-dione], below 25%. With `Cc1ccc(NCCCNCc2cc3c(s2)C(=O)N(C2CCC(=O)NC2=O)C3)cc1Cl` (stereo not drawn) [II-65, 3-(2-(((3-((3-chloro-4-methylphenyl)amino)propyl)amino)methyl)-6-oxo-4,6-dihydro-5H-thieno[2,3-c]pyrrol-5-yl)piperidine-2,6-dione] the figure was below 25%.

For the compound `C=C(C(=O)NCc1scc2c1CN(C1CCC(=O)NC1=O)C2=O)c1ccc(C)c(Cl)c1` (stereo not drawn) [II-67, 2-(3-chloro-4-methylphenyl)-N-((5-(2,6-dioxopiperidin-3-yl)-4-oxo-5,6-dihydro-4H-thieno[3,4-c]pyrrol-1-yl)methyl)propenamide], the cytotoxicity at 1 µM is below 25%. In the case of `Cc1ccc(CC(=O)NCc2scc3c2CN(C2CCC(=O)NC2=O)C3=O)cc1N(C)C` (stereo not drawn) [II-68, 2-(3-(dimethylamino)-4-methylphenyl)-N-((5-(2,6-dioxopiperidin-3-yl)-4-oxo-5,6-dihydro-4H-thieno[3,4-c]pyrrol-1-yl)methyl)acetamide] it was 25 to 50%. In the case of `Cc1ccc(CS(=O)(=O)NCc2scc3c2CN(C2CCC(=O)NC2=O)C3=O)cc1Cl` (stereo not drawn) [II-69, 1-(3-chloro-4-methylphenyl)-N-((5-(2,6-dioxopiperidin-3-yl)-4-oxo-5,6-dihydro-4H-thieno[3,4-c]pyrrol-1-yl)methyl)methanesulfonamide] it was 50 to 80%; in that of `CC(C)c1cccc(NC(=O)NCc2cc3c(s2)C(=O)N(C2CCC(=O)NC2=O)C3)c1` (stereo not drawn) [II-70, 1-((5-(2,6-dioxopiperidin-3-yl)-6-oxo-5,6-dihydro-4H-thieno[2,3-c]pyrrol-2-yl)methyl)-3-(3-isopropylphenyl)urea], above 80%. In the case of `CCN(CC)c1cccc(NC(=O)NCc2cc3c(s2)C(=O)N(C2CCC(=O)NC2=O)C3)c1` (stereo not drawn) [II-71, 1-(3-(diethylamino)phenyl)-3-((5-(2,6-dioxopiperidin-3-yl)-6-oxo-5,6-dihydro-4H-thieno[2,3-c]pyrrol-2-yl)methyl)urea] it was above 80%; in that of `Cc1ccc(NC(=O)NCc2cc3c(s2)C(=O)N(C2CC(=O)NC2=O)C3)cc1Cl` (stereo not drawn) [II-72, 1-(3-chloro-4-methylphenyl)-3-((5-(2,5-dioxopyrrolidin-3-yl)-6-oxo-5,6-dihydro-4H-thieno[2,3-c]pyrrol-2-yl)methyl)urea], 25 to 50%. `Cc1ccc(NC(=O)NCc2cc3c(s2)C(=O)N(C2(C)CCC(=O)NC2=O)C3)cc1Cl` (stereo not drawn) [II-73, 1-(3-chloro-4-methylphenyl)-3-((5-(3-methyl-2,6-dioxopiperidin-3-yl)-6-oxo-5,6-dihydro-4H-thieno[2,3-c]pyrrol-2-yl)methyl)urea]: the cytotoxicity at 1 µM is below 25%. In the case of `CC(C)c1ccc(CC(=O)NCc2scc3c2CN(C2CCC(=O)NC2=O)C3=O)cc1` (stereo not drawn) [II-74, N-((5-(2,6-dioxopiperidin-3-yl)-4-oxo-5,6-dihydro-4H-thieno[3,4-c]pyrrol-1-yl)methyl)-2-(4-isopropylphenyl)acetamide], the cytotoxicity at 1 µM was below 25%. As to `CC1CCC(CC(=O)NCc2scc3c2CN(C2CCC(=O)NC2=O)C3=O)CC1` (stereo not drawn) [II-75, N-((5-(2,6-dioxopiperidin-3-yl)-4-oxo-5,6-dihydro-4H-thieno[3,4-c]pyrrol-1-yl)methyl)-2-(4-methylcyclohexyl)acetamide], the cytotoxicity at 1 µM was below 25%. With `O=C(Cc1cccc(N2CCCCC2)c1)NCc1scc2c1CN(C1CCC(=O)NC1=O)C2=O` (stereo not drawn) [II-76, N-((5-(2,6-dioxopiperidin-3-yl)-4-oxo-5,6-dihydro-4H-thieno[3,4-c]pyrrol-1-yl)methyl)-2-(3-(piperidin-1-yl)phenyl)acetamide] the figure was above 80%; with `CN(C)CCOc1cccc(CC(=O)NCc2scc3c2CN(C2CCC(=O)NC2=O)C3=O)c1` (stereo not drawn) [II-77, 2-(3-(2-(dimethylamino)ethoxy)phenyl)-N-((5-(2,6-dioxopiperidin-3-yl)-4-oxo-5,6-dihydro-4H-thieno[3,4-c]pyrrol-1-yl)methyl)acetamide], below 25%; with `O=C(CN1CCOCC1)NCc1scc2c1CN(C1CCC(=O)NC1=O)C2=O` (stereo not drawn) [II-78, N-((5-(2,6-dioxopiperidin-3-yl)-4-oxo-5,6-dihydro-4H-thieno[3,4-c]pyrrol-1-yl)methyl)-2-morpholinoacetamide], below 25%.
